Laboratory results: PubChem BioAssay (NCI)
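Dose response: 5 concentrations. Exposure: 48 h. Format: 96-well plates. Endpoint: linear interpolation; highest concentration if not reached. Abbreviation: GI50, concentration required for 50% inhibition of growth. TGI: total growth inhibition.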 *1 amine or outer side, *2 acyl side, *3 side chain or, on linkers, in order; H or OH if unused. Where a SMILES comes first, the peptide text is derived from it. [ ]: non-standard residue; d: D form. ξ: configuration not given here. Ile(3ξ) = CCC(C)[C@H](N)C(=O)O; X33 = C=CCC(O[*:1])C(=O)[*:2]; NMeV = CN[C@H](C(=O)O)C(C)C; NMeA = CN[C@@H](C)C(=O)O; βAla = NCCC(=O)O

Legend:
Experiment in all cases: NCI tumour cell line growth inhibition, 48 h
[1] = test system: MDA-MB-231 breast
[2] = test system: SNB-75 CNS
[3] = test system: MCF7 breast
[4] = test system: SNB-19 CNS
[5] = test system: NCI-H460 lung
[6] = test system: ACHN renal
[7] = test system: A498 renal
[8] = test system: TK-10 renal
[9] = test system: U251 CNS
[10] = test system: NCI-H23 lung
[11] = test system: HS 578T breast
[12] = test system: HL-60(TB) leukemia
[13] = test system: SK-MEL-5 melanoma
[14] = test system: SNB-78 CNS
[15] = test system: SK-OV-3 ovarian
[16] = test system: SR leukemia
[17] = test system: KM12 colon
[18] = test system: EKVX NSCLC
[19] = test system: SK-MEL-2 melanoma
[20] = test system: UACC-257 melanoma
[21] = test system: COLO 205 colon
[22] = test system: XF 498 CNS
[23] = test system: 786-0 renal
[24] = test system: SF-268 CNS
[25] = test system: NCI-H226 lung
[26] = test system: IGROV1 ovarian
[27] = test system: HT29 colon
[28] = test system: PC-3 prostate
[29] = test system: HOP-92 NSCLC
[30] = test system: HCT-15 colon
[31] = test system: CAKI-1 renal
[32] = test system: SN12C renal
[33] = test system: NCI/ADR-RES ovarian
[34] = test system: HCC-2998 colon
[35] = test system: BT-549 breast
[36] = test system: SF-539 CNS
[37] = test system: HCT-116 colon
[38] = test system: T-47D breast
[39] = test system: OVCAR-3 ovarian
[40] = test system: CCRF-CEM leukemia
[41] = test system: DMS 273 small cell lung
[42] = test system: OVCAR-5 ovarian
[43] = test system: UO-31 renal
[44] = test system: M19-MEL melanoma
[45] = test system: NCI-H522 lung
[46] = test system: MALME-3M melanoma
[47] = test system: MDA-MB-435
[48] = test system: DMS 114 small cell lung
[49] = test system: OVCAR-8 ovarian
[50] = test system: RXF 393 renal
[51] = test system: K-562 leukemia
[52] = test system: RXF-631 renal
[53] = test system: UACC-62 melanoma
[54] = test system: OVCAR-4 ovarian
[55] = test system: DU-145 prostate
[56] = test system: LXFL 529 NSCLC
[57] = test system: SK-MEL-28 melanoma
[58] = test system: RPMI-8226 leukemia
[59] = test system: A549 NSCLC
[60] = test system: M14 melanoma
[61] = test system: LOX IMVI melanoma
[62] = test system: SF-295 CNS
[63] = test system: MOLT-4 leukemia
[64] = test system: HOP-62 NSCLC
[65] = test system: SW-620 colon
[66] = test system: DLD-1 colon
[67] = test system: KM20L2 colon

## Nc1n[n+](=O)c2ccccc2n1O
[1]
  GI50: > 100 µM
  TGI: > 100 µM
[2]
  TGI: > 100 µM
[3]
  GI50: 60.5 µM
  TGI: > 100 µM
[4]
  TGI: > 100 µM
[5]
  TGI: > 100 µM
[6]
  TGI: > 100 µM
[7]
  GI50: 11.9 µM
  TGI: > 100 µM
[8]
  TGI: > 100 µM
[9]
  TGI: > 100 µM
[10]
  GI50: 29.6 µM
  TGI: > 100 µM
[11]
  GI50: > 100 µM
  TGI: > 100 µM
[12]
  TGI: > 100 µM
[13]
  TGI: > 65.7 µM
[14]
  TGI: > 100 µM
[15]
  TGI: > 100 µM
[16]
  GI50: 20.6 µM
  TGI: > 100 µM
[17]
  TGI: > 100 µM
[18]
  TGI: > 100 µM
[19]
  TGI: > 100 µM
[20]
  TGI: > 100 µM
[21]
  TGI: > 100 µM
[22]
  TGI: > 100 µM
[23]
  TGI: > 100 µM
[24]
  TGI: > 100 µM
[25]
  TGI: > 100 µM
[26]
  TGI: > 100 µM
[27]
  TGI: > 100 µM
[28]
  GI50: 94.3 µM
  TGI: > 100 µM
[29]
  TGI: > 100 µM
[30]
  TGI: > 100 µM
[31]
  TGI: > 100 µM
[32]
  TGI: > 100 µM
[33]
  GI50: 55.2 µM
  TGI: > 100 µM
[34]
  GI50: 50.7 µM
  TGI: > 100 µM
[35]
  GI50: 19.3 µM
  TGI: > 100 µM
[36]
  TGI: > 100 µM
[37]
  GI50: 62.9 µM
  TGI: > 100 µM
[38]
  GI50: 38.4 µM
  TGI: > 100 µM
[39]
  TGI: > 100 µM
[40]
  TGI: > 100 µM
[41]
  TGI: > 100 µM
[42]
  TGI: > 100 µM
[43]
  TGI: > 100 µM
[44]
  TGI: > 100 µM
[45]
  TGI: > 100 µM
[46]
  TGI: > 100 µM
[47]
  GI50: > 100 µM
  TGI: > 100 µM
[48]
  TGI: > 100 µM
[49]
  TGI: > 100 µM
[50]
  TGI: > 100 µM
[51]
  TGI: > 100 µM
[52]
  TGI: > 100 µM
[53]
  TGI: > 100 µM
[54]
  TGI: > 100 µM
[55]
  GI50: 69.1 µM
  TGI: > 100 µM
[56]
  TGI: > 100 µM
[57]
  TGI: > 100 µM
[58]
  TGI: > 100 µM
[59]
  TGI: > 100 µM
[60]
  TGI: > 100 µM
[61]
  TGI: > 100 µM
[62]
  TGI: > 100 µM
[63]
  TGI: > 100 µM
[64]
  TGI: > 100 µM
[65]
  TGI: > 100 µM

## O=C(c1ccc(Cl)cc1Cl)N(/N=C/C=C/c1ccccc1)c1nnc(-c2ccccc2)c(-c2ccccc2)n1
[2]
  TGI: > 100 µM
[4]
  TGI: > 100 µM
[5]
  TGI: > 100 µM
[6]
  TGI: > 100 µM
[7]
  TGI: > 100 µM
[8]
  TGI: > 100 µM
[9]
  TGI: > 100 µM
[10]
  TGI: > 100 µM
[12]
  TGI: > 100 µM
[13]
  TGI: > 100 µM
[14]
  TGI: > 100 µM
[15]
  TGI: > 100 µM
[17]
  TGI: > 100 µM
[18]
  TGI: > 100 µM
[19]
  TGI: > 100 µM
[20]
  TGI: > 100 µM
[21]
  TGI: > 100 µM
[22]
  TGI: > 100 µM
[23]
  TGI: > 100 µM
[24]
  TGI: > 100 µM
[25]
  TGI: > 100 µM
[26]
  TGI: > 100 µM
[27]
  TGI: > 100 µM
[30]
  TGI: > 100 µM
[32]
  TGI: > 100 µM
[34]
  TGI: > 100 µM
[36]
  TGI: > 100 µM
[39]
  TGI: > 100 µM
[40]
  TGI: > 100 µM
[41]
  TGI: > 100 µM
[42]
  TGI: > 100 µM
[43]
  TGI: > 100 µM
[44]
  TGI: > 100 µM
[45]
  TGI: 82.5 µM
[46]
  TGI: > 100 µM
[48]
  TGI: > 100 µM
[49]
  TGI: > 100 µM
[66]
  TGI: > 100 µM
[50]
  TGI: > 100 µM
[51]
  TGI: > 100 µM
[52]
  TGI: > 100 µM
[53]
  TGI: > 100 µM
[54]
  TGI: > 100 µM
[67]
  TGI: > 100 µM
[57]
  TGI: > 100 µM
[58]
  TGI: > 100 µM
[59]
  TGI: > 100 µM
[61]
  TGI: > 100 µM
[62]
  TGI: > 100 µM
[63]
  TGI: > 100 µM
[64]
  TGI: > 100 µM
[65]
  TGI: > 100 µM

## CC1NS(=O)(=O)N(C)C1=O (configuration not stated)
[2]
  TGI: > 100 µM
[6]
  TGI: > 100 µM
[8]
  TGI: > 100 µM
[9]
  TGI: > 100 µM
[10]
  TGI: > 100 µM
[12]
  TGI: > 100 µM
[13]
  TGI: > 100 µM
[14]
  TGI: > 100 µM
[15]
  TGI: > 100 µM
[16]
  TGI: > 100 µM
[17]
  TGI: > 100 µM
[19]
  TGI: > 100 µM
[20]
  TGI: > 100 µM
[22]
  TGI: > 100 µM
[24]
  TGI: > 100 µM
[25]
  TGI: > 100 µM
[26]
  TGI: > 100 µM
[29]
  TGI: > 100 µM
[30]
  TGI: > 100 µM
[31]
  TGI: > 100 µM
[32]
  TGI: > 100 µM
[34]
  TGI: > 100 µM
[36]
  TGI: > 100 µM
[37]
  TGI: > 100 µM
[39]
  TGI: > 100 µM
[40]
  TGI: > 100 µM
[41]
  TGI: > 100 µM
[42]
  TGI: > 100 µM
[44]
  TGI: > 100 µM
[45]
  TGI: > 100 µM
[46]
  TGI: > 100 µM
[48]
  TGI: > 100 µM
[49]
  TGI: > 100 µM
[66]
  TGI: > 100 µM
[50]
  TGI: > 100 µM
[51]
  TGI: > 100 µM
[52]
  TGI: > 100 µM
[53]
  TGI: > 100 µM
[54]
  TGI: > 100 µM
[56]
  TGI: > 100 µM
[57]
  TGI: > 100 µM
[58]
  TGI: > 100 µM
[59]
  TGI: > 100 µM
[60]
  TGI: > 100 µM
[61]
  TGI: > 100 µM
[62]
  TGI: > 100 µM
[63]
  TGI: > 100 µM
[64]
  TGI: > 100 µM
[65]
  TGI: > 100 µM

## C=CCC1OC(=O)CCNC(=O)[C@H](C)N(C)C(=O)[C@H](C(C)C)N(C)C(=O)[C@H](C(C)CC)NC(=O)[C@@H]2CCCN2C1=O (some centres not stated) (cyclo([Ile(3ξ)][NMeV][NMeA][βAla][X33]P))
[2]
  TGI: > 90.5 µM
[4]
  TGI: > 100 µM
[5]
  TGI: > 100 µM
[6]
  TGI: > 100 µM
[7]
  TGI: > 100 µM
[8]
  TGI: > 100 µM
[9]
  TGI: > 100 µM
[10]
  TGI: > 100 µM
[12]
  TGI: > 100 µM
[13]
  TGI: 10.4 µM
[14]
  TGI: > 100 µM
[15]
  TGI: > 100 µM
[16]
  TGI: > 100 µM
[17]
  TGI: > 100 µM
[18]
  TGI: > 100 µM
[19]
  TGI: 12.6 µM
[20]
  TGI: 36.3 µM
[21]
  TGI: > 100 µM
[22]
  TGI: 41.8 µM
[23]
  TGI: > 100 µM
[24]
  TGI: 58.4 µM
[25]
  TGI: 29.2 µM
[26]
  TGI: > 100 µM
[27]
  TGI: > 100 µM
[29]
  TGI: > 30.9 µM
[30]
  TGI: > 100 µM
[31]
  TGI: > 78.6 µM
[32]
  TGI: > 100 µM
[34]
  TGI: 27.7 µM
[36]
  TGI: > 79.4 µM
[37]
  TGI: > 100 µM
[39]
  TGI: > 100 µM
[40]
  TGI: > 100 µM
[41]
  TGI: 28.9 µM
[42]
  TGI: > 100 µM
[43]
  TGI: 99.6 µM
[44]
  TGI: > 67.6 µM
[46]
  TGI: 16.5 µM
[48]
  TGI: > 100 µM
[49]
  TGI: > 100 µM
[66]
  TGI: > 100 µM
[50]
  TGI: > 100 µM
[51]
  TGI: > 71.6 µM
[52]
  TGI: > 100 µM
[53]
  TGI: > 46.2 µM
[54]
  TGI: > 100 µM
[56]
  TGI: > 100 µM
[67]
  TGI: > 52 µM
[57]
  TGI: > 100 µM
[58]
  TGI: > 100 µM
[59]
  TGI: > 100 µM
[60]
  TGI: 7.87 µM
[61]
  TGI: > 31.7 µM
[62]
  TGI: > 100 µM
[63]
  TGI: > 100 µM
[64]
  TGI: > 21 µM
[65]
  TGI: > 100 µM
